According to patent publication US8546611B2 (priority 2008, dated 2013):
Like-named read-outs stand apart in the source and are kept apart here.

Tests used:
white rat females = settings: female, in vivo, 5000 mg/kg; for Total died: 14 days
Wistar rat males = settings: 1.5 ml of 1% succinic acid perorally 10 min prior; for Eosinophils, 6 h after / Lymphocytes, 6 h after / Number of leukocytes in 1 μl of blood, 6 h after / Segmentated cells, 6 h after: 6 h after immobilization; for Eosinophils, before / Lymphocytes, before / Number of leukocytes in 1 μl of blood, before / Segmentated cells, before: at the moment of immobilization
Description: Examples, illustrating the method invented, are presented below. […] SA is tested on rats endured an immobilization stress; the parameter tested is lymphocytic composition of blood, which is determined before and after stress in a blood smear taken from the caudal vein. […] A detailed description of the testing technique is given in Example 13.
The animals were fixed while lying flat on their back, with their legs secured. […] Blood was taken from the caudal vein: 10 μl for counting blood corpuscles and 20 μl for preparing a smear with its subsequent staining by Romanovsky-Giemsa).
First group: 10 min prior immobilization, the animals were injected (perorally, with the help of a stomach pump) with 1.5 ml of 1% starch solution. […] Blood was taken from the caudal vein at the moment of immobilization and 6 hours later, and stained blood smears were prepared to calculate the leukogram.

[1] = tested on: patients with cardiac insufficiency; settings: for patients of functional class I, day 30 / patients of functional class II, day 30 / patients of functional class III, day 30 / patients of functional class IV, day 30 / patients of functional class I, day 60 / patients of functional class II, day 60 / patients of functional class III, day 60 / patients of functional class IV, day 60 / patients of functional class I, day 90 / patients of functional class II, day 90 / patients of functional class III, day 90 / patients of functional class IV, day 90: 100 mg twice per day with standard therapy; for patients of functional class I, day 30 / patients of functional class II, day 30 / patients of functional class III, day 30 / patients of functional class IV, day 30: after 30 days; for patients of functional class I, day 60 / patients of functional class II, day 60 / patients of functional class III, day 60 / patients of functional class IV, day 60: after 60 days; for patients of functional class I, day 90 / patients of functional class II, day 90 / patients of functional class III, day 90 / patients of functional class IV, day 90: after 90 days; for patients of functional class I, day 0 / patients of functional class II, day 0 / patients of functional class III, day 0 / patients of functional class IV, day 0: 100 mg twice per day, 3 months, with standard therapy, before treatment
Description: The test for cardiotonic activity of product samples was performed by measuring the dynamics of alteration of the functional class of cardiac failure. The functional class can be determined quite accurately by analyzing the everyday life activities according to a specific activity scale. The authors of this technique suppose that the criteria developed by NYHA (New York Heart Association) cannot provide accurate determination of functional class, since widely used terms, such as “everyday physical activity”, “sub-everyday activity” are not specific. On the basis of multiple tests, in which patients exercised on a treadmill, the authors calculated a scale of metabolic expenses for each kind of life activity (see Goldman L., Hashimoto B., Cook F. et al., Comparative reproducibility and validity of systems for assessing cardiovascular functional class: advantages of a new specific activity scale (1981) Circulation 64 (6):1227-34). This inquiry is designed to be used by medical personnel, interviewing a patient. After calculating the sum of possible energy expenses, the functional class of the patient is determined according to the summary criteria of the specific activity scale (Table 6).
In the tests, the patient groups were formed so that the people of the same functional class were equally distributed among different groups. Severe patients (of IV functional class; those having oncological diseases or suffered myocardial infarction/stroke to the brain 60 days or less before) were not admitted to the tests. The distribution of patients among groups was governed by a random number generator. The tests were carried out by the following protocol. Each patient took 100 mg of the preparation twice per day (in the morning and after lunch) during 3 months—against the background of a standard therapy administered by a physician. […] All the samples and placebo were encoded before sending into the clinic, so none of those involved into the tests (patients, physicians, medical personnel and the manager of tests) was aware of the nature of samples.
The functional class of patients was determined several times: at the beginning of tests (before the formation of test groups) and after 30, 60 and 90 days of treatment with the test samples. The estimation was performed on the basis of the activity scale (Table 7).

[2] = tested on: erythroid cells isolated from the bone marrow of gamma-irradiated laboratory mice males; assay: Radioprotective properties (micronucleus test after gamma irradiation); settings: mice irradiated with gamma rays 1.3 Gy, then fed 48 h succinic acid 20 mg/kg body wt.; critical value 16±2
[3] = tested on: erythroid cells isolated from the bone marrow of laboratory mice males; settings: feed with succinic acid 20 mg/kg body wt., not irradiated, norm 5.0±1.0
Description: The test for genotoxicity was performed on young laboratory mice males (18-20 g; 6 animals in each group). […] The control animals were given water.

SMILES | died, 13 day (white rat females) | died, 14 day (white rat females) | Total died (white rat females) | patients of functional class I, day 30 [1] | patients of functional class II, day 30 [1] | patients of functional class III, day 30 [1] | patients of functional class IV, day 30 [1] | patients of functional class I, day 60 [1] | patients of functional class II, day 60 [1] | patients of functional class III, day 60 [1] | patients of functional class IV, day 60 [1] | patients of functional class I, day 90 [1] | patients of functional class II, day 90 [1] | patients of functional class III, day 90 [1] | patients of functional class IV, day 90 [1] | patients of functional class I, day 0 [1] | patients of functional class II, day 0 [1] | patients of functional class III, day 0 [1] | patients of functional class IV, day 0 [1] | Number of micronuclei per 2000 cells (radioprotective properties) [2] | further results
O=C(O)CCC(=O)O [Example 7, succinic acid] | 2 | 2 | 4 | 9 | 6 | 5 | 0 | 13 | 5 | 2 | 0 | 15 | 4 | 1 | 0 | 8 | 7 | 5 | 0 | 11.5 ± 1.8 | Eosinophils, 6 h after (Wistar rat males; listed as Ex. 7): 1.5 ± 4%; Lymphocytes, 6 h after (Wistar rat males; listed as Ex. 7): 73 ± 6%; Number of leukocytes in 1 μl of blood, 6 h after (Wistar rat males; listed as Ex. 7): 7200; Segmentated cells, 6 h after (Wistar rat males; listed as Ex. 7): 26 ± 3%; Eosinophils, before (Wistar rat males; listed as Ex. 7): 2 ± 1%; Lymphocytes, before (Wistar rat males; listed as Ex. 7): 75 ± 7%; Number of leukocytes in 1 μl of blood, before (Wistar rat males; listed as Ex. 7): 6000; Segmentated cells, before (Wistar rat males; listed as Ex. 7): 23 ± 3%; Number of micronuclei per 2000 cells (genotoxicity) [3]: 5.0 ± 1.0
O=C(O)CCC(=O)O [Example 8, succinic acid] | 1 | 1 | 3 | 10 | 6 | 4 | 0 | 11 | 6 | 3 | 0 | 14 | 5 | 1 | 0 | 8 | 7 | 5 | 0 | 12.0 ± 1.5 | died, 12 day (white rat females; 12 day): 1; Eosinophils, 6 h after (Wistar rat males; listed as Ex. 8): 1.5 ± 3%; Lymphocytes, 6 h after (Wistar rat males; listed as Ex. 8): 75 ± 4%; Number of leukocytes in 1 μl of blood, 6 h after (Wistar rat males; listed as Ex. 8): 7000; Segmentated cells, 6 h after (Wistar rat males; listed as Ex. 8): 24 ± 2%; Eosinophils, before (Wistar rat males; listed as Ex. 8): 2 ± 6%; Lymphocytes, before (Wistar rat males; listed as Ex. 8): 77 ± 5%; Number of leukocytes in 1 μl of blood, before (Wistar rat males; listed as Ex. 8): 5900; Segmentated cells, before (Wistar rat males; listed as Ex. 8): 21 ± 4%; Number of micronuclei per 2000 cells (genotoxicity) [3]: 5.0 ± 0.8
O=C(O)CCC(=O)O [Example 9, succinic acid] | 2 | 1 | 3 | 10 | 6 | 4 | 0 | 11 | 6 | 3 | 0 | 14 | 5 | 1 | 0 | 8 | 7 | 5 | 0 | 11.0 ± 1.6 | Eosinophils, 6 h after (Wistar rat males; listed as Ex. 9): 1.5 ± 2%; Lymphocytes, 6 h after (Wistar rat males; listed as Ex. 9): 74 ± 6%; Number of leukocytes in 1 μl of blood, 6 h after (Wistar rat males; listed as Ex. 9): 7000; Segmentated cells, 6 h after (Wistar rat males; listed as Ex. 9): 25 ± 6%; Eosinophils, before (Wistar rat males; listed as Ex. 9): 2 ± 4%; Lymphocytes, before (Wistar rat males; listed as Ex. 9): 76 ± 6%; Number of leukocytes in 1 μl of blood, before (Wistar rat males; listed as Ex. 9): 5800; Segmentated cells, before (Wistar rat males; listed as Ex. 9): 22 ± 3%; Number of micronuclei per 2000 cells (genotoxicity) [3]: 5.0 ± 1.0
O=C(O)CCC(=O)O [Example 10, succinic acid] | 1 | 2 | 3 | 10 | 5 | 4 | 0 | 10 | 7 | 3 | 0 | 14 | 5 | 1 | 0 | 8 | 7 | 5 | 0 | 12.5 ± 1.0 | Eosinophils, 6 h after (Wistar rat males; listed as Ex. 10): 1.5 ± 2%; Lymphocytes, 6 h after (Wistar rat males; listed as Ex. 10): 74 ± 4%; Number of leukocytes in 1 μl of blood, 6 h after (Wistar rat males; listed as Ex. 10): 7000; Segmentated cells, 6 h after (Wistar rat males; listed as Ex. 10): 24 ± 4%; Eosinophils, before (Wistar rat males; listed as Ex. 10): 2 ± 2%; Lymphocytes, before (Wistar rat males; listed as Ex. 10): 76 ± 5%; Number of leukocytes in 1 μl of blood, before (Wistar rat males; listed as Ex. 10): 5800; Segmentated cells, before (Wistar rat males; listed as Ex. 10): 22 ± 3%; Number of micronuclei per 2000 cells (genotoxicity) [3]: 5.0 ± 1.0
